Earlier results on twelve compounds are cited in patent publication US20110243859A1, “ENCAPSULATING SYSTEM FOR CEST IMAGING WITH CHELATE Q GREATER THAN OR EQUAL TO 2” (GUERBET, priority 2008, published 2011).

The conditions of data set [1]: monomeric chelate.
The conditions of data set [2]: spherical liposome, maximum accessible concentration inside.

With `CC1(N(CC(=O)O)CC(=O)O)CN(CC(=O)O)CCN(CC(=O)O)C1` [AAZTA], the Value q in data set [1] was 2. On to `O=C(O)CN1CCNCCN(CC(=O)O)CCNCC1` [DO2A], for which the Value q in data set [1] is 3.

Turning to `O=C(O)CN1CCNCCN(CC(=O)O)CCN(CC(=O)O)CC1` [DO3A], the Value q in data set [1] is listed as 2.

In the case of `CC(C(=O)O)N1CCNCCN(C(C)C(=O)O)CCN(C(C)C(=O)O)CC1` (stereo not drawn) [DO3MA], the Value q in data set [1] is on record as 2.

`O=C(O)CN1CCN(CC(=O)O)CCN(CC(=O)O)CCN(CC(=O)O)CC1` [DOTA]: the Value q in data set [1] was 1. Consider `CC(O)CN1CCN(CC(=O)[O-])CCN(CC(=O)[O-])CCN(CC(=O)[O-])CC1.[Tm+3]` (stereo not drawn) [HP-DO3A-Tm], for which, in data set [2], the Delta shift value was 3.5 ppm.

As for `CC(O)CN1CCN(CC(=O)O)CCN(CC(=O)O)CCN(CC(=O)O)CC1` (stereo not drawn) [HP-DO3A], the Value q in data set [1] is listed as 1. For the compound `CC(CN(CC(=O)O)CC(=O)O)N(CC(=O)O)CC(=O)O` (stereo not drawn) [MeDTA], the Value q in data set [1] is on record as 2. On to `CC(C(=O)O)N1CCN(C(C)C(=O)O)CCN(C(C)C(=O)O)CC1` (stereo not drawn) [NOTMA], for which the Value q in data set [1] is given as 2. As to `O=C(O)CN1CCN(CC(=O)O)Cc2cccc(n2)CN(CC(=O)O)CC1` [PCTA], the Value q in data set [1] is on record as 2. Take `NC1C(O)C(N)C(O)C(N)C1O` (stereo not drawn) [Taci]: the Value q in data set [1] is recorded as 2. With texaphyrin [Tx], the Value q in data set [1] is 3.5.
